Consider one compound from patent US5474928A, “Arginine deiminase from a Mycoplasma arginini strain” (Nippon Mining Company, Limited, priority 1989, dated 1995).

By Km is commonly meant the concentration of substrate that gives half-maximal velocity.

SMILES strings stand for the structures.

The subject of assay [1] is M. hominis arginine deiminase. To be noted: literature value, Table 1; substrate L-arginine; cited from earlier work.
For assay [2], the system named is M. arthritidis arginine deiminase. Particulars: literature value, Table 1; substrate L-arginine; cited from earlier work.
The target in assay [3] is T1, Mycoplasma arginini (IFO 14476) arginine deiminase (EC 3.5.3.6), present invention, amino acid sequence of FIG. 4 (Mycoplasmopsis arginini, UniProt P23793).
T1 construct: Arginine deiminase was purified from the M. arginini cell extract; endogenous in cells; host or cells: Mycoplasma arginini IFO 14476 cells (strain from the Institute for Fermentation, Osaka); enzyme purified in house by three chromatography steps
The experiment in a line: Km determination by Lineweaver-Burk plot analysis, citrulline formation assay. Particulars: purified enzyme from M. arginini, substrate L-arginine. The format is biochemical. On the procedure: The activity of arginine deiminase can be determined by causing it to produce citrulline using the method reported by Fenske et. al. [J. Bacteriol. 126, 501-510 (1976)], and by measuring the amount of the yields using the method given by Archibald [J. Biol. Chem. 156, 121-142 (1944)].
Specifically, 20 μl of arginine deiminase solution is added to 1.0 ml of 10 mM arginine [dissolved in 0.1M phosphate buffer of pH 7.0], then an enzyme reaction is allowed to take place at 37° C. for 10 minutes, and the reaction is terminated by adding 1 ml of mixed acid solution (H2 SO4 :H3 PO4 =1:3). Then, the resultant reactive solution is added with 25 μl of 3% aqueous diacetylmonooxim solution, heated at 100° C. for 20 minutes under a light-shielded condition, left to cool under a room temperature for 30 minutes, and then the amount of the citrulline yield is measured quantitatively by measuring the absorbence at 490 nm. The activity of arginine deiminase producing 1 μmol of citrulline in one minute is defined as 1 unit.
v) Km value and Vmax value
By the Lineweaver-Burk plot analysis Km and Vmax were determined as 0.2 mM and 50 U/mg, respectively.

Assay [4] deals with Strepto- faecalis arginine deiminase. Particulars: literature value, Table 1; substrate L-arginine; cited from earlier work.

T1 sequence (P23793 whole entry): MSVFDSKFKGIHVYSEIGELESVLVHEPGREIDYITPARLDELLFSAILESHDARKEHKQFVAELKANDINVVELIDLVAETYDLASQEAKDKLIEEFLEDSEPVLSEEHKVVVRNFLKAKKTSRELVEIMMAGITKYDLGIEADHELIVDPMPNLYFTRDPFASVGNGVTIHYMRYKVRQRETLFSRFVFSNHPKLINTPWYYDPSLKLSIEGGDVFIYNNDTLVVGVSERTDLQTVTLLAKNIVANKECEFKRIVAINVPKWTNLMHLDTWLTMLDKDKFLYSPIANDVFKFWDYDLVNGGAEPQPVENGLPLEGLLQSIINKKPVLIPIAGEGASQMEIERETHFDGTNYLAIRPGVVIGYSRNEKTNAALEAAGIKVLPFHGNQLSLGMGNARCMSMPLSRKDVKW

For `N=C(N)NCCC[C@H](N)C(=O)O` [L-arginine], the Km was 100 to 400 µM in assay [1], 4 µM in assay [2], about 200 µM in assay [3] and 150 µM in assay [4].
